Data from PMC7997579, “Synthetic Lethality in Pancreatic Cancer: Discovery of a New RAD51-BRCA2 Small Molecule Disruptor That Inhibits Homologous Recombination and Synergizes with Olaparib” (Journal of Medicinal Chemistry, 2020).
In brackets after ≈: the same amount, converted by molar mass. Where two headings read alike, the source gives them in different places.

Tests used:
[1] = system: homologous recombination in BxPC3 cells; experiment: Homologous recombination assay (two-plasmid recombination, real-time PCR); format: cell-based, human; conditions: Homo sapiens, BXPC-3
BxPC3 cells [2] = experiment: Cell viability assay (CellTiter-Glo), association with olaparib; format: cell-based, human
From the text: Our working hypothesis is that compounds disrupting RAD51-BRCA2 interaction should affect HR repair and increase the efficacy of PARPi in treating breast, ovarian, and pancreatic cancer. For its clinical relevance, pancreatic adenocarcinoma was selected as our final model for cell-based experiments, and BxPC3 cells were selected for a straightforward comparison with the previously reported triazole derivatives.[30],[31] BxPC3 is derived from a human adenocarcinoma that expresses fully functional BRCA2.[38] As shown in Table 2 and according to the rationale of our hypothesis, our preliminary screening consisted of verifying the efficacy of compounds in inhibiting cell HR and/or in increasing the antiproliferative effect of olaparib. […] HR activity was assessed by evaluating the recombination rate between two transfected plasmids, using a commercially available assay. […] As for the emissucinic acid-containing compounds (4d, 12d, 18d, 20d–23d, 30d, 31d), one of the reasons for their lower potency in cells might be the general poor permeability, likely related to the ionizable acid moiety. […] We then characterized 35d in additional biophysical and cell-based experiments.
Cell viability was assessed with the CellTiter-Glo luminescent cell viability assay from Promega. For this experiment, 1 × 10^4 cells in 200 μL of culture medium were seeded into each well of a 96-multiwell white body plate and allowed to adhere overnight. After 72 h incubation in the presence of olaparib (10 μM) and the RAD51-BRCA2 disruptors alone or in combination, the plate was allowed to equilibrate at room temperature for 30 min and the CellTiter-Glo reactive was directly added to each well. The plate was kept on a shaker for 10 min to induce cell lysis, and its luminescence was measured with a Fluoroskan Ascent FL reader (Labsystems).

[3] = Solubility (as observed in cell culture media / stated); format: physicochemical
BxPC3 cells [4] = experiment: Micronuclei visualization; format: cell-based, human; conditions: BxPC3, 72 h, 20 μM 35d + 10 μM olaparib vs single agents; p <0.01
Experimental: For micronuclei visualization, cells were grown on coverslips placed in a 6-multiwell plate (5 × 10^5 cells/well). After a 72 h treatment with olaparib (10 μM) or 35d (20 μM) given alone or in combination, wells were rapidly washed with PBS and then fixed for 10 min with cold methanol. Coverslips were then air-dried and mounted on glass slides using a solution of DAPI (5 μg/mL)/DABCO. Images were acquired on a Nikon fluorescent microscope equipped with filters for DAPI. […] The percentage of cells bearing micronuclei was estimated by two independent observers, by analyzing 100–250 cells for each treatment sample.

recombinant human RAD51 = target: T1, recombinant human RAD51 (Homo sapiens, UniProt Q06609); experiment: Microscale thermophoresis (MST) binding assay; conditions: labeled His-hRAD51, 35d up to 40 μM, three replicates, read-out: Kd (RAD51-35d interaction)
T1 construct: made in house; host or cells: E. coli Rosetta2(DE3)pLysS, pET15b-His-hRAD51
T1 sequence (Q06609 1-339): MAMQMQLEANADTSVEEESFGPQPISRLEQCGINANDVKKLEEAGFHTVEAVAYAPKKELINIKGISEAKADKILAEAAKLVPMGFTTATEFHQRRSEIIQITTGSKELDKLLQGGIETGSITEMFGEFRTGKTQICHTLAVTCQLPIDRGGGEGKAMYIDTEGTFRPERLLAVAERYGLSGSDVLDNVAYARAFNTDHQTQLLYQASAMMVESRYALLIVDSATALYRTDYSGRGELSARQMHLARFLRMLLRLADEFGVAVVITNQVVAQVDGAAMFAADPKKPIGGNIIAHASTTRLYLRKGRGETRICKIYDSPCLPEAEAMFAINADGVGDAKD
Experimental: To further assess the physical interaction between 35d and RAD51, a microscale thermophoresis (MST) assay was performed on the recombinant human RAD51 (see Experimental Section). The binding assay allowed us to determine the dissociation constant (Kd) for the RAD51-35d interaction and binding. […] This is in agreement with the ELISA assay, supporting the initial hypothesis that 35d could act as a RAD51-BRCA2 disruptor.
The recombinant protein hRAD51 was labeled with the Monolith His-Tag labeling kit RED-tris-NTA 2nd Generation kit (NanoTemper Technologies). MST measurements were simultaneously performed on 16 capillaries containing a constant concentration (25 nM) of labeled RED-tris-NTA 2nd Generation His-hRAD51 protein and 16 different concentrations of 35d in order to determine a concentration-dependent MST binding curve. The highest 35d concentration tested was 40 μM. Measurements were carried out in MST buffer (20 mM Hepes (pH 8.00), 250 mM KCl, 0.1 mM EDTA, 5% (v/v) glycerol, 5% DMSO).

CCC(=O)N1N=C(c2c(-c3ccccc3)c3cc(Cl)ccc3[nH]c2=O)CC1c1ccc(OC)cc1 (stereo not shown) [Compound 35d, 6-Chloro-3-(5-(4-methoxyphenyl)-1-propionyl-4,5-dihydro-1H-pyrazol-3-yl)-4-phenylquinolin-2(1H)-one]
inhibition at 10 µM ([1]; 10 μM, BxPC3, 5 h during plasmid transfection): ~10% | inhibition at 20 µM ([1]; 20 μM, BxPC3, 5 h during plasmid transfection): 54% | EC50 ([1]; BxPC3, 5 h, tested up to 40 μM, polynomial regression, read-out: EC50 (dose causing a 50% inhibition of HR)): 18.4 µM | combination index (CI) with olaparib (BxPC3 cells [2]; BxPC3, 10 μM 35d + 10 μM olaparib): ~1 | olaparib association (BxPC3 cells [2]; BxPC3, at 15 μM): olaparib association = present at 15 μM | combination index (CI) with olaparib (BxPC3 cells [2]; BxPC-3, 20 μM 35d + 10 μM olaparib, CI < 0.8 = synergism): < 0.8 | solubility ([3]; HR assay medium (RPMI, 0.6% DMSO), kinetic from dmso stock, read-out: upper limit in terms of solubility): 40 µM (≈ 19.4 µg/mL) | solubility ([3]; stated in conclusions): low solubility | cells bearing micronuclei (BxPC3 cells [4]): markedly more frequent | Kd (recombinant human RAD51): 11 ± 6 µM
